What was measured:
vitamin D receptor (VDR) = biological target: T1, vitamin D receptor (VDR) (Homo sapiens, UniProt P11473); assay: Vitamin D-dependent transcriptional activation: growth hormone production in COS-1 cells co-transfected with VDR plasmid and VDRE-GH plasmid; type: cell-based; conditions: in words
T1 sequence (P11473 1-427): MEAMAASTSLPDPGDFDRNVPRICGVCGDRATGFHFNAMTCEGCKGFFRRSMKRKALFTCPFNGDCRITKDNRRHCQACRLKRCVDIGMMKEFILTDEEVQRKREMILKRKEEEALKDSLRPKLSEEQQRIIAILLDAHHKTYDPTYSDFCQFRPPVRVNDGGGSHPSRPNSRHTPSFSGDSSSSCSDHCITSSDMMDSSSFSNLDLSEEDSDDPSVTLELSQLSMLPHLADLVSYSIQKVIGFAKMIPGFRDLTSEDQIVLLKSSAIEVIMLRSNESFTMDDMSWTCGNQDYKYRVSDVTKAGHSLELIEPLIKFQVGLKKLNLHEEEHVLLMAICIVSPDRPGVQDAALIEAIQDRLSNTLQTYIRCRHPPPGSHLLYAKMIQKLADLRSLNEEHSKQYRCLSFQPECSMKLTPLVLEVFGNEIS
Method: The biological activity in vitro of chemically synthesized 1α,24(S)-(OH)2 D2 and 1α,24(R)-(OH)2 D2 was measured using a vitamin D-dependent transcriptional activation model system in which a vitamin D receptor (VDR)-expressing plasmid pSG5-hVDR1/3and a plasmid p(CT4)^4 TKGH containing a Growth Hormone (GH)-gene, under the control of a vitamin D-responsive element (VDRE) were co-transfected into Green monkey kidney, COS-1 cells. DNA's for these two vectors were supplied by Dr. Mark Haussler, Department of Biochemistry, University of Arizona, Tucson, Ariz.
Tranfected cells were incubated with vitamin D metabolites and growth hormone production was measured.

[1] = tested on: men and women with renal disease undergoing chronic hemodialysis; assay: Management of hypocalcemia and metabolic bone disease in chronic hemodialysis patients; type: in vivo, human; conditions: greater than 3.0 μg/day, twelve months; double-isotope technique
Method: A twelve-month, double-blind, placebo-controlled clinical trial is conducted with thirty men and women with renal disease who are undergoing chronic hemodialysis. […] Efficacy is evaluated by pre- and post-treatment comparisons of the two patient groups with regard to (a) direct measurements of intestinal calcium absorption, (b) total body calcium retention, (c) radial and spinal bone mineral density, or (d) determinations of serum calcium. Safety is evaluated by regular monitoring of serum calcium.

[2] = tested on: postmenopausal osteoporotic out-patients; assay: Preventive treatment of bone mass loss in postmenopausal osteoporotic women; type: in vivo, human; conditions: at or above 1.0 μg/day, 24 to 36 months
Method: A clinical study is conducted with postmenopausal osteoporotic out-patientshaving ages between 55 and 75 years. The study involves up to 120 patients randomly divided into three treatment groups and continues for 24 to 36 months. Two of the treatment groups receive constant dosages of 1α,24(S)-dihydroxy vitamin D2 (u.i.d.; two different dose levels at or above 1.0 μg/day) and the other group receives a matching placebo. All patients maintain a normal intake of dietary calcium (500 to 800 mg/day) and refrain from using calcium supplements. Efficacy is evaluated by pre-and post-treatment comparisons of the patient groups with regard to (a) total body calcium retention, and (b) radial and spinal bone mineral density as determined by dual-photon absorptiometry (DPA) or dual-energy x-ray absorptiometry (DEXA). Safety is evaluated by comparisons of urinary hydroxyproline excretion, serum and urine calcium levels, creatinine. clearance, blood urea nitrogen, and other routine determinations.

[3] = tested on: healthy postmenopausal women; assay: Prophylaxis of postmenopausal bone loss; type: in vivo, human; conditions: at or above 1.0 μg/day, 24 to 36 months
Method: A clinical study is conducted with healthy postmenopausal women having ages between 55 and 60 years. The study involves up to 80 patients randomly divided into two treatment groups, and continues for 24 to 36 months. One treatment group receives a constant dosage of 1α,24(S)-dihydroxy vitamin D2 (u.i.d.; a dose level at or above 1.0 μg/day) and the other receives a matching placebo. The study is conducted as indicated in Example 2 above.

[4] = tested on: postmenopausal osteoporotic women; assay: Dose ranging study in postmenopausal osteoporotic women; type: in vivo, human; conditions: oral 0.5 to 8.0 μg/day, escalated weekly over five weeks
Method: Twenty postmenopausal osteoporotic women are enrolled in an open label study.
On admission to the study, all patients receive instruction on selecting a daily diet containing 400 to 600 mg of calcium. Compliance to this diet is verified at weekly intervals by 24-hour food records and by interviews with each patient.
All patients complete a one-week baseline period, a five-week treatment period, and a one-week post-treatment observation period. During the treatment period, patients orally self-administer 1α,24(S)-dihydroxyvitamin D2 at an initial dose of 0.5 μg/day for the first week, and at successively higher doses of 1.0, 2.0, 4.0, and 8.0 μg/day in each of the following four weeks. All doses are administered before breakfast.
Blood and urine chemistries are monitored on a weekly basis throughout the study. Key blood chemistries include fasting serum levels of-calcium, phosphorus, osteocalcin, creatinine, and blood urea nitrogen. Key urine chemistries include 24-hour excretion of calcium, phosphorus, and creatinine.

Hep 3B cells = assay: Metabolite production in Hep 3B cells incubated with 1α-OH-D2; type: in vitro ADME, human; conditions: Experiment 2, photodiode array spectrophotometry
Method: Substantially pure 1α-(OH)D2 was obtained from Bone Care International, Inc. of Madison, Wis. The 1α-(OH)D2 was cultured for 48 hours with cells derived from a human hepatoma, Hep 3B, in medium devoid of fetal calf serum using known methods in the art.
Lipid extracts of the combined medium and cells were generated by known methods in the art and were subjected to high pressure liquid chromatography (HPLC) on Zorbax-S1L developed with hexane/isopropanol/methanol (91:7:2). The putative 1α,24(?)-(OH)2 D2 metabolite eluted between the parent 1α-(OH)D2 and standard 1α,25-(OH)2 D2 (also obtained from Bone Care International, Inc. of Madison, Wis.). (As used herein, the term "1α,24(?)-(OH)2 D2 " is meant to indicate that the epimeric form has not been identified.) The 1α,24(?)-(OH)2 D2 was further purified by this HPLC system before the metabolite's identification was undertaken using mass spectrometry analysis.
Hep 3B cells were incubated with 1α-OH-D2, as described above, at final concentrations of 1, 10, or 100 nM (Experiment 1), and 1 or 10 μM (Experiment 2) and 1α,24(S)-(OH)2 D2 was extracted and purified. The 1α,24(S)-(OH)2 D2 and 1α,25-(OH)2 D2 metabolites were quantitated by recovered radiolabel (Experiment 1) or by photodiode array spectrophotometry (Experiment 2).

Question: How did the “activity in the transcriptional activation system compared with 1α,24(R)-(OH)2 D2” value (vitamin D receptor (VDR)) turn out when `C=C1/C(=C\C=C2/CCC[C@]3(C)[C@@H]([C@H](C)/C=C/[C@@](C)(O)C(C)C)CC[C@@H]23)C[C@@H](O)C[C@@H]1O` [1α,24(S)-(OH)2 D2, 1α,24(S)-dihydroxy Vitamin D2] was run?
Answer: significantly more activity

Question: What about the intestinal calcium absorption [1] of the same molecule?
Answer: significantly increases

Question: What about the “incidence of hypercalcemia or hypercalciuria, or any other metabolic disturbance” value [2] of the same molecule?
Answer: insignificant incidence

Question: And the “total body calcium, and radial and spinal bone densities relative to placebo” value [2]?
Answer: significantly higher

Question: What about the “monitored safety parameters, long-term administration” value [3] of the same molecule?
Answer: confirm the safety

Question: And the “routinely monitored serum parameters” value [4]?
Answer: no effect

Question: And the serum osteocalcin levels [4]?
Answer: increases

Question: And the “urinary excretion of hydroxyproline” value [4]?
Answer: nor does it increase

Question: And the “Rate of Production” value (Hep 3B cells; substrate 1α-OH-D2 1 μM)?
Answer: 4.9 pmol per 10^6 cells/day

Question: What about the “Rate of Production” value (Hep 3B cells; substrate 1α-OH-D2 10 μM) of the same molecule?
Answer: 59 pmol per 10^6 cells/day

Reference: patent US6166000A, “Methods for preparation and use of 1α,24(S)-Dihydroxy vitamin . D.sub2” (priority 1995, dated 2000)
